# Experimental data reported in ChEMBL document CHEMBL4350974, “Synthesis and biological evaluation of methylpyrimidine-fused tricyclic diterpene analogs as novel oral anti-late-onset hypogonadism agents” (Eur J Med Chem, 2019).
# Activity calls are given as the source filed them. The calls are words filed in the database; no cut-off is given here.
# What was measured:
# TM3 = assay: Induction of testosterone production in mouse TM3 cells assessed as increase in testosterone level at 20 uM measured after 24 hrs by ELISA relative to control; assay type: functional
# [1] = Cytotoxicity against mouse TM3 cells assessed as reduction in cell viability measured after 24 hrs by sulforhodamine B assay; assay type: cell-based
# Rattus norvegicus [2] = assay: Anti late-onset hypogonadism activity in cyclophosphamide-induced Sprague-Dawley rat model of partial androgen deficiency assessed as intratesticular testosterone level at 10 mg/kg, sc administered for every 3 days up to 4 weeks ELISA (reference value: 137.99 +/- 19.27 nmol/L); assay type: functional
# Rattus norvegicus [3] = assay: Anti late-onset hypogonadism activity in cyclophosphamide-induced Sprague-Dawley rat model of partial androgen deficiency assessed as increase in free testosterone level at 10 mg/kg, sc administered for every 3 days up to 4 weeks and measured every 2 weeks by ELISA; assay type: functional, organism-based
# Rattus norvegicus [4] = assay: Anti late-onset hypogonadism activity in cyclophosphamide-induced Sprague-Dawley rat model of partial androgen deficiency assessed as increase in serum total testosterone level at 10 mg/kg, sc administered for every 3 days up to 4 weeks and measured every 2 weeks by ELISA; assay type: functional, organism-based
# [5] = Toxicity in cyclophosphamide-induced Sprague-Dawley rat model of partial androgen deficiency assessed as decrease in body weight at 10 mg/kg, sc administered for every 3 days up to 4 weeks and measured every 3 days; assay type: organism-based; conditions: in vivo
# Rattus norvegicus [6] = assay: Anti late-onset hypogonadism activity in cyclophosphamide-induced Sprague-Dawley rat model of partial androgen deficiency assessed as inhibition of Leydig cells apoptosis at 10 mg/kg, sc administered for every 3 days up to 4 weeks by DAPI staining based TUNEL assay; assay type: functional, organism-based
# Rattus norvegicus [7] = species on record: Rattus norvegicus; assay: Potency index, ratio of test compound effect to testosterone effect for anti late-onset hypogonadism activity in cyclophosphamide-induced Sprague-Dawley rat model of partial androgen deficiency assessed as inhibition of Leydig cells apoptosis; assay type: functional
# Rattus norvegicus [8] = assay: Anti late-onset hypogonadism activity in cyclophosphamide-induced Sprague-Dawley rat model of partial androgen deficiency assessed as weight of testis at 10 mg/kg, sc administered for every 3 days for 4 weeks (reference value: 1.47 +/- 0.13 g); assay type: functional
# Rattus norvegicus [9] = assay: Anti late-onset hypogonadism activity in cyclophosphamide-induced Sprague-Dawley rat model of partial androgen deficiency assessed as weight of seminal vesicles at 10 mg/kg, sc administered for every 3 days for 4 weeks Rvb = 1.33 +/- 0.26 g); assay type: functional
# [10] = Toxicity in cyclophosphamide - induced Sprague-Dawley rat model of partial androgen deficiency assessed as sperm viability by semen analysis (reference value: 95.1 +/- 3.2 %)
# [11] = Toxicity in cyclophosphamide - induced Sprague-Dawley rat model of partial androgen deficiency assessed as sperm motility by semen analysis (reference value: 88.3 +/- 7.3 %); conditions: in vivo
SMILES,Activity (TM3) [%],CC50 at 24 h [1] [µM],other results
COc1ccc2c(c1)[C@@]1(C)Cc3nccnc3C(C)(C)C1CC2 (some centres not stated),134,71.3,–
COc1ccc2c(c1)[C@@]1(C)Cc3c([nH]c4ccccc34)C(C)(C)C1CC2 (some centres not stated),183.4,< 50,–
COc1ccc2c(c1)[C@@]1(C)Cc3c(n[nH]c3C(=O)O)C(C)(C)C1CC2 (some centres not stated),128.2,> 200,–
COc1ccc2c(c1)[C@@]1(C)Cc3sc(N)nc3C(C)(C)C1CC2 (some centres not stated),110.9,< 50,–
COc1ccc2c(c1)[C@@]1(C)Cc3c[nH]nc3C(C)(C)C1CC2 (some centres not stated),116.6,< 50,–
CCOC(=O)c1[nH]nc2c1C[C@]1(C)c3cc(OC)ccc3CCC1C2(C)C (some centres not stated),160.9,< 50,–
COc1cc2c(cc1C(N)=O)CCC1C(C)(C)c3nc(C)ncc3C[C@]21C (mixture of isomers),169.8,> 200,–
C=CCNC(=O)c1cc2c(cc1OC)[C@@]1(C)Cc3cnc(C)nc3C(C)(C)C1CC2 (mixture of isomers),142.9,–,–
C#CCOc1ccc2c(c1)[C@@]1(C)Cc3cnc(C)nc3C(C)(C)C1CC2 (mixture of isomers),120.5,–,–
CCc1ccc(NC(=O)c2cc3c(cc2OC)[C@@]2(C)Cc4cnc(C)nc4C(C)(C)C2CC3)cc1 (mixture of isomers),167.8,< 50,–
COc1cc2c(cc1C(=O)NN1CCCCC1)CCC1C(C)(C)c3nc(C)ncc3C[C@]21C (mixture of isomers),111.5,–,–
COc1ccc2c(c1)[C@@]1(C)Cc3cnc(C)nc3C(C)(C)C1C/C2=N/O (mixture of isomers),128.5,–,–
CCCNC(=O)c1cc2c(cc1OC)[C@@]1(C)Cc3cnc(C)nc3C(C)(C)C1CC2 (mixture of isomers),140.9,–,–
COc1cccc(NC(=O)c2cc3c(cc2OC)[C@@]2(C)Cc4cnc(C)nc4C(C)(C)C2CC3)c1 (mixture of isomers),173.6,< 50,–
COc1ccc2c(c1)[C@@]1(C)Cc3cnc(C)nc3C(C)(C)C1C=C2 (mixture of isomers),129.8,–,–
Cc1ncc2c(n1)C(C)(C)C1CCc3ccc(OCc4ccccc4)cc3[C@@]1(C)C2 (mixture of isomers),133,–,–
COc1cc2c(cc1NC(C)=O)CCC1C(C)(C)c3nc(C)ncc3C[C@]21C (mixture of isomers),157.6,> 200,–
COc1ccc2c(c1)[C@@]1(C)Cc3cnc(C)nc3C(C)(C)C1CC2=O (mixture of isomers),109.9,–,–
COc1cc2c(cc1C(=O)O)CCC1C(C)(C)c3nc(C)ncc3C[C@]21C (mixture of isomers),121.2,–,–
COc1cc2c(cc1C(=O)Nc1ccc3[nH]ncc3c1)CCC1C(C)(C)c3nc(C)ncc3C[C@]21C (mixture of isomers),181.5,< 50,–
Cc1ncc2c(n1)C(C)(C)C1CCc3ccc(OCc4cccc([N+](=O)[O-])c4)cc3[C@@]1(C)C2 (mixture of isomers),122.4,–,–
COc1ccc2c(c1)[C@@]1(C)Cc3cnc(C)nc3C(C)(C)C1CC2 (mixture of isomers),145,151,–
CCNC(=O)c1cc2c(cc1OC)[C@@]1(C)Cc3cnc(C)nc3C(C)(C)C1CC2 (mixture of isomers),141.3,–,–

SMILES,Activity (TM3) [%],CC50 at 24 h [1] [µM],other results
COc1cc2c(cc1C(=O)NO)CCC1C(C)(C)c3nc(C)ncc3C[C@]21C (mixture of isomers),189.5,82.2,–
Cc1ncc2c(n1)C(C)(C)C1CCc3ccc(O)cc3[C@@]1(C)C2 (mixture of isomers),124.4,–,–
COc1cc2c(cc1C(=O)Nc1nccs1)CCC1C(C)(C)c3nc(C)ncc3C[C@]21C (mixture of isomers),134.1,–,–
C#CCNC(=O)c1cc2c(cc1OC)[C@@]1(C)Cc3cnc(C)nc3C(C)(C)C1CC2 (mixture of isomers),118.1,–,–
CCCOc1ccc2c(c1)[C@@]1(C)Cc3cnc(C)nc3C(C)(C)C1CC2 (mixture of isomers),113.2,–,–
CCCCCNC(=O)c1cc2c(cc1OC)[C@@]1(C)Cc3cnc(C)nc3C(C)(C)C1CC2 (mixture of isomers),171.9,< 50,–
COc1cc2c(cc1Br)CCC1C(C)(C)c3nc(C)ncc3C[C@]21C (mixture of isomers),119.2,–,–
COc1cc2c(cc1C(=O)NCC(C)C)CCC1C(C)(C)c3nc(C)ncc3C[C@]21C (mixture of isomers),114.7,–,–
CCCCNC(=O)c1cc2c(cc1OC)[C@@]1(C)Cc3cnc(C)nc3C(C)(C)C1CC2 (mixture of isomers),166.9,< 50,–
COc1cc2c(cc1C(=O)NN)CCC1C(C)(C)c3nc(C)ncc3C[C@]21C (mixture of isomers),130,> 200,–
Cc1ncc2c(n1)C(C)(C)C1CCc3ccc(OC(C)C)cc3[C@@]1(C)C2 (mixture of isomers),129.3,–,–
CNCc1cc2c(cc1OC)[C@@]1(C)Cc3cnc(C)nc3C(C)(C)C1CC2 (mixture of isomers),176.6,124,–
COc1cc2c(cc1C(=O)NCc1cccc(Cl)c1)CCC1C(C)(C)c3nc(C)ncc3C[C@]21C (mixture of isomers),164.2,< 50,–
COc1cc2c(cc1N)CCC1C(C)(C)c3nc(C)ncc3C[C@]21C.Cl (mixture of isomers),146.6,127,–
COc1cc2c(cc1C(=O)N(C)C)CCC1C(C)(C)c3nc(C)ncc3C[C@]21C (mixture of isomers),133.1,> 200,–
COc1cc2c(cc1C(=O)N1CCc3ccccc31)CCC1C(C)(C)c3nc(C)ncc3C[C@]21C (mixture of isomers),116.9,–,–
COc1cc2c(cc1C(=O)Nc1ccccc1)CCC1C(C)(C)c3nc(C)ncc3C[C@]21C (mixture of isomers),156.8,< 50,–
COc1cc2c(cc1C(=O)NC1CCCC1)CCC1C(C)(C)c3nc(C)ncc3C[C@]21C (mixture of isomers),122.4,–,–
COc1cc2c(cc1C(=O)Nc1ncco1)CCC1C(C)(C)c3nc(C)ncc3C[C@]21C (mixture of isomers),176.9,< 50,–
C=CCOc1ccc2c(c1)[C@@]1(C)Cc3cnc(C)nc3C(C)(C)C1CC2 (mixture of isomers),142,–,–
COc1ccc(-c2oc3c(CC=C(C)C)c(O[C@@H]4O[C@H](CO)[C@@H](O)[C@H](O)[C@H]4O)cc(O)c3c(=O)c2O[C@@H]2O[C@@H](C)[C@H](O)[C@@H](O)[C@H]2O)cc1 [ICARIIN],139.6,> 200,–
C[C@]12CC[C@H]3[C@@H](CCC4=CC(=O)CC[C@@]43C)[C@@H]1CC[C@@H]2O [TESTOSTERONE],–,–,Activity (Rattus norvegicus [2]): 145.38 nmol/L; Activity (Rattus norvegicus [3]): Active; Activity (Rattus norvegicus [4]): Active; Activity [5]: Non-Toxic; inhibition (Rattus norvegicus [6]): Active; Ratio (Rattus norvegicus [7]): 2; Activity (Rattus norvegicus [8]): 1.53 g; Activity (Rattus norvegicus [9]): 1.64 g; Activity [10]: 88.8%; Activity [11]: 79.8%
